Assay results taken from patent US9725449B2, “Tricyclic compounds as anticancer agents” (BRISTOL-MYERS SQUIBB COMPANY, priority 2015, dated 2017).
pIC50: −log10 of the molar value.

Biological target: BRD4 (Homo sapiens, UniProt O60885)
Experiment: Time resolved fluorescence resonance energy transfer (TR-FRET) binding assay, bromodomain BRD4
Conditions: one of the FRET assays described; read-out: FRET BRD4 IC50

Row | Structure (SMILES) | pIC50
1 | [2H]C([2H])([2H])c1nnn(C)c1-c1cnc2c3ccc(C(C)(C)O)nc3n([C@H](c3ccccc3F)C3CCOCC3)c2c1 [Example 241, 2-{8-[(S)-(2-Fluorophenyl)(oxan-4-yl)methyl]-5-[4-(^2H3)methyl-1-methyl-1H-1,2,3-triazol-5-yl]-3,8,10-triazatricyclo[7.4.0.0^2,^7]trideca-1(13),2(7),3,5,9,11-hexaen-11-yl}propan-2-ol] | > 8.00
2 | [2H]C([2H])([2H])c1nnn(C)c1-c1cnc2c3ccc(C(C)(O)C4CC4)nc3n([C@H](c3ccccc3F)C3CCOCC3)c2c1 (stereo partly drawn) [Example 242, 1-Cyclopropyl-1-{8-[(S)-(2-fluorophenyl)(oxan-4-yl)methyl]-5-[4-(^2H3)methyl-1-methyl-1H-1,2,3-triazol-5-yl]-3,8,10-triazatricyclo[7.4.0.0^2,^7]trideca-1(13),2(7),3,5,9,11-hexaen-11-yl}ethan-1-ol] | > 8.00
3 | [2H]C([2H])([2H])c1nnn(C)c1-c1cnc2c3ccc(C(C)(O)C4CC4)nc3n([C@H](c3ccccc3F)C3CCOCC3)c2c1 (stereo partly drawn) [Example 243, 1-Cyclopropyl-1-{8-[(S)-(2-fluorophenyl)(oxan-4-yl)methyl]-5-[4-(^2H3)methyl-1-methyl-1H-1,2,3-triazol-5-yl]-3,8,10-triazatricyclo[7.4.0.0^2,^7]trideca-1(13),2(7),3,5,9,11-hexaen-11-yl}ethan-1-ol] | > 8.00
4 | [2H]C([2H])([2H])c1nnn(C)c1-c1cnc2c3cnc(N4CCN(C)CC4)cc3n([C@H](c3ccccc3F)C3CCOCC3)c2c1 [Example 244, 8-[(S)-(2-Fluorophenyl)(oxan-4-yl)methyl]-5-[4-(^2H3)methyl-1-methyl-1H-1,2,3-triazol-5-yl]-11-(4-methylpiperazin-1-yl)-3,8,12-triazatricyclo[7.4.0.0^2,^7]trideca-1(13),2(7),3,5,9,11-hexaene] | > 8.00
5 | [2H]C([2H])([2H])c1nnn(C)c1-c1cnc2c3cnc(S(C)(=O)=O)cc3n([C@H](c3ccccc3F)C3CCOCC3)c2c1 [Example 245, 8-[(S)-(2-Fluorophenyl)(oxan-4-yl)methyl]-11-methanesulfonyl-5-[4-(^2H3)methyl-1-methyl-1H-1,2,3-triazol-5-yl]-3,8,12-triazatricyclo[7.4.0.0^2,^7]trideca-1(13),2(7),3,5,9,11-hexaene] | > 8.00
6 | [2H]C([2H])([2H])c1nnn(C)c1-c1cnc2c3ccc(Cl)nc3n(C(c3ncccc3F)C3CCOCC3)c2c1 (stereo not shown) [Example 246, 11-Chloro-8-[(3-fluoropyridin-2-yl)(oxan-4-yl)methyl]-5-[4-(^2H3)methyl-1-methyl-1H-1,2,3-triazol-5-yl]-3,8,10-triazatricyclo[7.4.0.0^2,^7]trideca-1(13),2(7),3,5,9,11-hexaene] | > 8.00
7 | [2H]C([2H])([2H])c1nnn(C)c1-c1cnc2c3ccc(-c4c(C([2H])([2H])[2H])nnn4C)nc3n(C(c3ncccc3F)C3CCOCC3)c2c1 (stereo not shown) [Example 247, 8-[(3-Fluoropyridin-2-yl)(oxan-4-yl)methyl]-5,11-bis[4-(^2H3)methyl-1-methyl-1H-1,2,3-triazol-5-yl]-3,8,10-triazatricyclo[7.4.0.0^2,^7]trideca-1(13),2(7),3,5,9,11-hexaene] | > 9.00
8 | [2H]C([2H])([2H])c1nnn(C)c1-c1cnc2c3ccc(-c4c(C([2H])([2H])[2H])nnn4C)nc3n(C(c3ncccc3F)C3CCOCC3)c2c1 (stereo not shown) [Example 248, 8-[(3-Fluoropyridin-2-yl)(oxan-4-yl)methyl]-5,11-bis[4-(^2H3)methyl-1-methyl-1H-1,2,3-triazol-5-yl]-3,8,10-triazatricyclo[7.4.0.0^2,^7]trideca-1(13),2(7),3,5,9,11-hexaene] | > 8.00
9 | [2H]C([2H])([2H])c1nnn(C)c1-c1cnc2c3ccc(N4CCN(C([2H])([2H])[2H])CC4)nc3n([C@H](c3ccccc3)C3CCOCC3)c2c1 [Example 249, 5-[4-(^2H3)Methyl-1-methyl-1H-1,2,3-triazol-5-yl]-11-[4-(^2H3)methylpiperazin-1-yl]-8-[(S)-oxan-4-yl(phenyl)methyl]-3,8,10-triazatricyclo[7.4.0.0^2,^7]trideca-1(13),2(7),3,5,9,11-hexaene] | > 8.00
10 | [2H]C([2H])([2H])N1CCN(c2ccc3c4ncc(-c5c(C)nnn5C)cc4n([C@H](c4ccccc4F)C4CCOCC4)c3n2)CC1 [Example 250, 5-(Dimethyl-1H-1,2,3-triazol-5-yl)-8-[(S)-(2-fluorophenyl)(oxan-4-yl)methyl]-11-[4-(^2H3)methylpiperazin-1-yl]-3,8,10-triazatricyclo[7.4.0.0^2,^7]trideca-1(13),2(7),3,5,9,11-hexaene] | > 8.00
11 | [2H]C([2H])([2H])c1nnn(C)c1-c1cnc2c3ccc(N4CCNCC4)nc3n([C@H](c3ccccc3)C3CCOCC3)c2c1 [Example 251, 5-[4-(^2H3)Methyl-1-methyl-1H-1,2,3-triazol-5-yl]-8-[(S)-oxan-4-yl(phenyl)methyl]-11-(piperazin-1-yl)-3,8,10-triazatricyclo[7.4.0.0^2,^7]trideca-1(13),2(7),3,5,9,11-hexaene] | > 8.00
12 | [2H]C([2H])([2H])c1nnn(C)c1-c1cnc2c3ccc(N4C[C@@H](C)N[C@@H](C)C4)nc3n([C@H](c3ccccc3)C3CCOCC3)c2c1 [Example 252, 11-[(3R,5S)-3,5-Dimethylpiperazin-1-yl]-5-[4-(^2H3)methyl-1-methyl-1H-1,2,3-triazol-5-yl]-8-[(S)-oxan-4-yl(phenyl)methyl]-3,8,10-triazatricyclo[7.4.0.0^2,^7]trideca-1(13),2(7),3,5,9,11-hexaene] | > 9.00
13 | COc1nnn(C)c1-c1cnc2c3ccc(-c4c(OC)nnn4C)nc3n([C@H](c3ccccc3F)C3CCOCC3)c2c1 [Example 253, 8-[(S)-(2-Fluorophenyl)(oxan-4-yl)methyl]-5,11-bis(4-methoxy-1-methyl-1H-1,2,3-triazol-5-yl)-3,8,10-triazatricyclo[7.4.0.0^2,^7]trideca-1(13),2(7),3,5,9,11-hexaene] | > 8.00
14 | COc1nnn(C)c1-c1cnc2c3ccc(N4CCN(C)CC4)nc3n([C@H](c3ccccc3F)C3CCOCC3)c2c1 [Example 254, 8-[(S)-(2-Fluorophenyl)(oxan-4-yl)methyl]-5-(4-methoxy-1-methyl-1H-1,2,3-triazol-5-yl)-11-(4-methylpiperazin-1-yl)-3,8,10-triazatricyclo[7.4.0.0^2,^7]trideca-1(13),2(7),3,5,9,11-hexaene] | > 9.00
15 | CNCCN(C)c1ccc2c3ncc(-c4c(OC)nnn4C)cc3n([C@H](c3ccccc3F)C3CCOCC3)c2n1 [Example 255, 8-[(S)-(2-Fluorophenyl)(oxan-4-yl)methyl]-5-(4-methoxy-1-methyl-1H-1,2,3-triazol-5-yl)-N-methyl-N-[2-(methylamino)ethyl]-3,8,10-triazatricyclo[7.4.0.0^2,^7]trideca-1(13),2(7),3,5,9,11-hexaen-11-amine] | > 8.00
16 | COc1nnn(C)c1-c1cnc2c3ccc(N4CCS(=O)(=O)CC4)nc3n([C@H](c3ccccc3F)C3CCOCC3)c2c1 [Example 256, 4-{8-[(S)-(2-Fluorophenyl)(oxan-4-yl)methyl]-5-(4-methoxy-1-methyl-1H-1,2,3-triazol-5-yl)-3,8,10-triazatricyclo[7.4.0.0^2,^7]trideca-1(13),2(7),3,5,9,11-hexaen-11-yl}-1λ^6,4-thiomorpholine-1,1-dione] | > 8.00
17 | CCN(CCN(C)C)c1ccc2c3ncc(-c4c(OC)nnn4C)cc3n([C@H](c3ccccc3F)C3CCOCC3)c2n1 [Example 257, N-[2-(Dimethylamino)ethyl]-N-ethyl-8-[(S)-(2-fluorophenyl)(oxan-4-yl)methyl]-5-(4-methoxy-1-methyl-1H-1,2,3-triazol-5-yl)-3,8,10-triazatricyclo[7.4.0.0^2,^7]trideca-1(13),2(7),3,5,9,11-hexaen-11-amine] | > 9.00
18 | Cc1nnn(C)c1-c1cnc2c3ccc(N4CCN(C(=O)C5CC5)CC4)nc3n([C@H](c3ccc(F)cc3)C3CCOCC3)c2c1 [Example 258, 11-(4-Cyclopropanecarbonylpiperazin-1-yl)-5-(dimethyl-1H-1,2,3-triazol-5-yl)-8-[(S)-(4-fluorophenyl)(oxan-4-yl)methyl]-3,8,10-triazatricyclo[7.4.0.0^2,^7]trideca-1(13),2(7),3,5,9,11-hexaene] | > 8.00
19 | [2H]C([2H])([2H])c1nnn(C)c1-c1cnc2c3ccc(Cl)nc3n(C(c3ccccc3)C3CCC(F)(F)CC3)c2c1 (stereo not shown) [Example 259, 11-Chloro-8-[(4,4-difluorocyclohexyl)(phenyl)methyl]-5-[4-(^2H3)methyl-1-methyl-1H-1,2,3-triazol-5-yl]-3,8,10-triazatricyclo[7.4.0.0^2,^7]trideca-1(13),2(7),3,5,9,11-hexaene] | > 5.82
20 | [2H]C([2H])([2H])c1nnn(C)c1-c1cnc2c3ccc(-c4c(C([2H])([2H])[2H])nnn4C)nc3n(C(c3ccccc3)C3CCC(F)(F)CC3)c2c1 (stereo not shown) [Example 260, 8-[(4,4-Difluorocyclohexyl)(phenyl)methyl]-5,11-bis[4-(^2H3)methyl-1-methyl-H-1,2,3-triazol-5-yl]-3,8,10-triazatricyclo[7.4.0.0^2,^7]trideca-1(13),2(7),3,5,9,11-hexaene] | > 8.00
21 | [2H]C([2H])([2H])c1nnn(C)c1-c1cnc2c3ccc(-c4c(C([2H])([2H])[2H])nnn4C)nc3n(C(c3ccccc3)C3CCC(F)(F)CC3)c2c1 (stereo not shown) [Example 261, 8-[(4,4-Difluorocyclohexyl)(phenyl)methyl]-5,11-bis[4-(^2H3)methyl-1-methyl-H-1,2,3-triazol-5-yl]-3,8,10-triazatricyclo[7.4.0.0^2,^7]trideca-1(13),2(7),3,5,9,11-hexaene] | > 8.00
22 | Cc1nnn(C)c1-c1cnc2c3ccc(N4CCN(C(=O)N(C)C)CC4)nc3n([C@H](c3ccccc3F)C3CCOCC3)c2c1 [Example 268, 4-[5-(Dimethyl-1H-1,2,3-triazol-5-yl)-8-[(S)-(2-fluorophenyl)(oxan-4-yl)methyl]-3,8,10-triazatricyclo[7.4.0.0^2,^7]trideca-1(13),2(7),3,5,9,11-hexaen-11-yl]-N,N-dimethylpiperazine-1-carboxamide] | > 9.00
